# Laboratory results from ChEMBL document CHEMBL1201862, “PubChem BioAssay data set” (2004).
# The source made the active and inactive calls.
# Legend:
# Estrogen receptor beta = Estrogen receptor beta (Homo sapiens, UniProt Q92731); experiment: blockers of SRC-3 recruitment to ERβ – biochemical, ELISA, streptavidin-HRP readout, orthogonal assay, confirmation (AID 1060)
# [1] = biological target: Protein-tyrosine kinase 2-beta (Homo sapiens, UniProt Q14289);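 also: potency of inhibitors of PYK2 kinase phosphorylation of poly-GT substrate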
# Chain of Protein-tyrosine kinase 2-beta (Q14289 whole entry): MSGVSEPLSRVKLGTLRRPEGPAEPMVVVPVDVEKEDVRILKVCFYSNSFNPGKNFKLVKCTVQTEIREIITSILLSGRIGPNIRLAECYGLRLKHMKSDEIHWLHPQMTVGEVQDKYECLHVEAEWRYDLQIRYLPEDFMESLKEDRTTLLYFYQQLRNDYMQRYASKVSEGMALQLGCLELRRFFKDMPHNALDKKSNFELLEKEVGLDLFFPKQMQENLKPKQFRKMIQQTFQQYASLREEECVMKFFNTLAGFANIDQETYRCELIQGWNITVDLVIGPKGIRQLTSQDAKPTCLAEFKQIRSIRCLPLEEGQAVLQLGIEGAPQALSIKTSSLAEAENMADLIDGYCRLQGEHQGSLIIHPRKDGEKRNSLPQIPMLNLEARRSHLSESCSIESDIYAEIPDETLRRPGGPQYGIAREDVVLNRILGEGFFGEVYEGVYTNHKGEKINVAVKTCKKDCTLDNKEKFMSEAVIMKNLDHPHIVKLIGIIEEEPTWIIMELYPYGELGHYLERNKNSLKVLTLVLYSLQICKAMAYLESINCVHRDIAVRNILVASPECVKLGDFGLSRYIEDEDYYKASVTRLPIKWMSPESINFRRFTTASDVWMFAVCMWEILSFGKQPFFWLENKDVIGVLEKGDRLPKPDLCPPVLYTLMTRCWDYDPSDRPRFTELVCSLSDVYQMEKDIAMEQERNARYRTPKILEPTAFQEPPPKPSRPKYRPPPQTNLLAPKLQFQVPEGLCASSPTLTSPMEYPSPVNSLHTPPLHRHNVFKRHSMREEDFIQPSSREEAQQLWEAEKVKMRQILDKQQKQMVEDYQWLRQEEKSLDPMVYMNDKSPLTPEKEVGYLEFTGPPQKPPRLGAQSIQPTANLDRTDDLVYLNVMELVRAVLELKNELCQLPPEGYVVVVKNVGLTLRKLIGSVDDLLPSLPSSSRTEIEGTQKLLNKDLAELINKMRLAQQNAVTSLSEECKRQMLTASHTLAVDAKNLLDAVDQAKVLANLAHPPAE
# Nonstructural protein 1 = Nonstructural protein 1 (Influenza A virus, UniProt Q194T2); assay type: functional, Influenza A virus (A/California/07/2009(H1N1))
# Chain of Nonstructural protein 1 (Q194T2 whole entry): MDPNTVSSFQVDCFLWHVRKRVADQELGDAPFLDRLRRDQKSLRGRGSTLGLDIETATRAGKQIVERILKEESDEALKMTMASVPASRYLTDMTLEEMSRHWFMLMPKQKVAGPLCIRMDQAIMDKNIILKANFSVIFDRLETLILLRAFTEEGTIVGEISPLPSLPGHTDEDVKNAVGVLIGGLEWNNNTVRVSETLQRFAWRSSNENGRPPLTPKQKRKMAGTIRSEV
# [2] = biological target: FAD-linked sulfhydryl oxidase ALR (Homo sapiens, UniProt P55789); experiment: ALR-catalysed DTT oxidation blockers – biochemical, H2O2 detection, luminescence, cherry-pick, dose response (AID 493248)
# Chain of FAD-linked sulfhydryl oxidase ALR (P55789 whole entry): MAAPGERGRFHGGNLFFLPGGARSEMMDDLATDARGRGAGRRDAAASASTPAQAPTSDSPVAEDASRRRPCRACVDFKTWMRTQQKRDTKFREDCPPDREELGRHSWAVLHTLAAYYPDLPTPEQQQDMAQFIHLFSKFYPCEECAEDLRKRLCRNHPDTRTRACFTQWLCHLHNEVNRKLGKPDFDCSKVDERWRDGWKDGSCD
# [3] = biological target: T1, DNA repair and recombination protein RAD54-like (Homo sapiens, UniProt Q92698); experiment: RAD54 Holliday junction migration blockers – biochemical, fluorescence, cherry-picked samples, dose series, confirmation (AID 651657); assay type: functional
# T1 sequence (Q92698 whole entry): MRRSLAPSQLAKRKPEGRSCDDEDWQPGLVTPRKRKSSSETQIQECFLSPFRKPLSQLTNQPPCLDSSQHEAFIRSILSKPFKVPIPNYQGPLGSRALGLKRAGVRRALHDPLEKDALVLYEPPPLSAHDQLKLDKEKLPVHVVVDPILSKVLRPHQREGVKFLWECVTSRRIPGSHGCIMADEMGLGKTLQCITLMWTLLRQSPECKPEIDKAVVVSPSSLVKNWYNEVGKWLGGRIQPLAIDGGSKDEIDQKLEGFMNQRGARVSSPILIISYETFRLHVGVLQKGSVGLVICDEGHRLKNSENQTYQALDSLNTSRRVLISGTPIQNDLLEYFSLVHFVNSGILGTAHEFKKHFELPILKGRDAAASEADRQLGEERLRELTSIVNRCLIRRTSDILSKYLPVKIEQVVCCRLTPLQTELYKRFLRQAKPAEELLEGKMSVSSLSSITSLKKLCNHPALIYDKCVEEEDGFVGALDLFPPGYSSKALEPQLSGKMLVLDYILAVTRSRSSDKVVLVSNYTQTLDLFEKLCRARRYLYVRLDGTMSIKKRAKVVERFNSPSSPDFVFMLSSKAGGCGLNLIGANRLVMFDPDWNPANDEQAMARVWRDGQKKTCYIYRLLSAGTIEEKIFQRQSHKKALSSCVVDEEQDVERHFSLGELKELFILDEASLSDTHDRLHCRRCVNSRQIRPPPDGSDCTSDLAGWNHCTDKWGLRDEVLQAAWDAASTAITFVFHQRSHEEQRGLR
# [4] = biological target: T2, Rac GTPase-activating protein 1 (Homo sapiens, UniProt Q9H0H5); experiment: blockers of MgcRacGAP-driven Rac1 GTP hydrolysis – biochemical, ADP Hunter fluorescence, primary and confirmatory, confirmation (AID 624330); assay type: functional
# T2 sequence (Q9H0H5 whole entry): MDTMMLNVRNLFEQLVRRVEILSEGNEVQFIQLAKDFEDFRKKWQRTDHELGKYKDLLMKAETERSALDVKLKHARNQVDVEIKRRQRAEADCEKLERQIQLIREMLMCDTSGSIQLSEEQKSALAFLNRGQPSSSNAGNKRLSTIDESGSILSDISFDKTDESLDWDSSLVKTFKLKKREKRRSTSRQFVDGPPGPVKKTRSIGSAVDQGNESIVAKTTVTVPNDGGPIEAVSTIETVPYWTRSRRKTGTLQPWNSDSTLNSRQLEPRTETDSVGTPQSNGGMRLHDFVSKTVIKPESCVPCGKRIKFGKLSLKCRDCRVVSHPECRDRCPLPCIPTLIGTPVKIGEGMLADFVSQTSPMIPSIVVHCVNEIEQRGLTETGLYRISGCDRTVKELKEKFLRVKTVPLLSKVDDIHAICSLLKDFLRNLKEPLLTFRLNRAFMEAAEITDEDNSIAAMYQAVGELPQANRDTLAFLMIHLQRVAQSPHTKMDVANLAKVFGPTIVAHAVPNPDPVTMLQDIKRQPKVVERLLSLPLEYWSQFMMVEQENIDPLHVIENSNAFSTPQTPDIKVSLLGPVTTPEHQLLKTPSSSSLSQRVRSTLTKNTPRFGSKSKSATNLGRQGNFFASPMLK
# [5] = biological target: Glutathione-S-transferase (Schistosoma japonicum, UniProt Q26513); experiment: GST-antibody interaction or FRET quenching – biochemical, TR-FRET, artefact control for Vif-APOBEC3G degradation inhibitor project, dose response (AID 1117362); assay type: functional
# Chain of Glutathione-S-transferase (Q26513 whole entry): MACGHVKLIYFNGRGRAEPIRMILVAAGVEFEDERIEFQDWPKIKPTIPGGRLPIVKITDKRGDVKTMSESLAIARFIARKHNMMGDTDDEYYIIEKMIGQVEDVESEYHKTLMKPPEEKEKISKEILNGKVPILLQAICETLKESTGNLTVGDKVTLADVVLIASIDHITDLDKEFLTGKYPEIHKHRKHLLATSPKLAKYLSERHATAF
# [6] = hepatoma cell viability loss – CellTiter-Glo luminescence, dry powder, set 20, cytotoxicity control, dose response (AID 1117291); assay type: functional, cell-based; conditions: HepG2
# [7] = embryonic kidney cell viability loss – CellTiter-Glo luminescence, dry powder, set 20, cytotoxicity control, dose response (AID 1117293); assay type: functional, cell-based; conditions: HEK293
# [8] = biological target: Metabotropic glutamate receptor 7 (Homo sapiens, UniProt Q14831); experiment: potentiation of glutamate EC20 at mGlu7 – cell-based, calcium mobilization, Galpha15, dose response (AID 743384); assay type: functional
# Chain of Metabotropic glutamate receptor 7 (Q14831 whole entry): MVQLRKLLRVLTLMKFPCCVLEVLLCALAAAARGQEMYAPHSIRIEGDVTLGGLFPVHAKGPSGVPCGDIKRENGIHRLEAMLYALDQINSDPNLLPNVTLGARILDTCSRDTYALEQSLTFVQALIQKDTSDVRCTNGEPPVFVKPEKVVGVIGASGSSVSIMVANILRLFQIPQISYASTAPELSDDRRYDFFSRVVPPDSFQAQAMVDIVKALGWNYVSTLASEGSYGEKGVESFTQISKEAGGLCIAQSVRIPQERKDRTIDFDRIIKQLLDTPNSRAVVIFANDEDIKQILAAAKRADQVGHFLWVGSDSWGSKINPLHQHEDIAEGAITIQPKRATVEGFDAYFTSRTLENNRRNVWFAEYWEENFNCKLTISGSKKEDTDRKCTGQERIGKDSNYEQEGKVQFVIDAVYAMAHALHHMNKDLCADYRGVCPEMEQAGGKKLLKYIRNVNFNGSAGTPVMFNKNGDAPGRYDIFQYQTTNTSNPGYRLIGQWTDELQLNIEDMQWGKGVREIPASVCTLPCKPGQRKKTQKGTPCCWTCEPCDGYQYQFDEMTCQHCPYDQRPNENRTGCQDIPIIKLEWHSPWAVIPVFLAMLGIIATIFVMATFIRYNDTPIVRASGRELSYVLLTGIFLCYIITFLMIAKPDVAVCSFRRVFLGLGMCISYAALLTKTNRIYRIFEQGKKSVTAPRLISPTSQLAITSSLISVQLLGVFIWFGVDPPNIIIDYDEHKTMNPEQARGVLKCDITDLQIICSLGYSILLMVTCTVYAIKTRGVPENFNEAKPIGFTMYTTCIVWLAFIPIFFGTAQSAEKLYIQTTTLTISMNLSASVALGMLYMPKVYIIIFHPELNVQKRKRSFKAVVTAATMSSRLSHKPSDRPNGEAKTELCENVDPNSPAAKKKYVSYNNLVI
# [9] = toxicity to HepG2 liver cells – cell-based, plate reader, dry powder, set 6, cytotoxicity control, dose response (AID 743311); assay type: functional
# cells = conditions: HEK293
# [10] = system: Streptococcus sp. 'group A'; experiment: Streptococcus pyogenes SK(-)GAS viability under kanamycin – luminescence, BacTiterGlo, confirmation, counter-screen for streptokinase expression inhibitor project, dose response (AID 1900); assay type: functional, organism-based
# Streptococcus = experiment: GAS UMAA2166 growth inhibition – luminescence, BacTiterGlo, counter-screen for streptokinase expression inhibitor project, dose response (AID 1915); assay type: functional, organism-based;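 also: potency for reduction of bacterial viability or growth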
# Hexokinase = biological target: T3, Hexokinase (Trypanosoma brucei, UniProt Q38C41); experiment: Confirmation assay for inhibitors of Trypanosoma brucei hexokinase 1-Analogue-first series. [Related pubchem assays (depositor defined):AID1430, AID1632, AID2516, AID2560, AID2579, AID2600, AID449725, AID492951]; assay type: functional
# T3 sequence (Q38C41 whole entry): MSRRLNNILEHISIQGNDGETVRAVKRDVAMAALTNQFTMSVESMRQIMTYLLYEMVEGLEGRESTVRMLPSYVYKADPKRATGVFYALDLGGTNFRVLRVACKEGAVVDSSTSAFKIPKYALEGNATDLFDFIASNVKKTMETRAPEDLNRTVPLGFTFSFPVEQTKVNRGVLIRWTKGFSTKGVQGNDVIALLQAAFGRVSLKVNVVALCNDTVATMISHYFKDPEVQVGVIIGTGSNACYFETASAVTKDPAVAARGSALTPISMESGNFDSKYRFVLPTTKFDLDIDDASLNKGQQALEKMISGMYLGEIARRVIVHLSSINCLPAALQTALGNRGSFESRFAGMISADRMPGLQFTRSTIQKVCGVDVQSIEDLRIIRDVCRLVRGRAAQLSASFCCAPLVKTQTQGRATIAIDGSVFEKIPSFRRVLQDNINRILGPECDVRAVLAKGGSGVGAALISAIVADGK
# [11] = biological target: T4, Small ubiquitin-related modifier 1 (Homo sapiens, UniProt P63165); experiment: SUMO1 protein interaction blockers, potency – biochemical, fluorescence polarization, uHTS hits, dose response (AID 624382); assay type: functional; conditions: read-out: IC50_Mean
# T4 sequence (P63165 whole entry): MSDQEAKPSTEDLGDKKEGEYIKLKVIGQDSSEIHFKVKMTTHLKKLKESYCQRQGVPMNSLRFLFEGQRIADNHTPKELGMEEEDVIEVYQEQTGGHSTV
# [12] = biological target: T4, Small ubiquitin-related modifier 1; experiment: SUMO1 protein-protein binding blockers, potency – biochemical, FRET, dose response (AID 624383); assay type: functional; conditions: read-out: IC50_Mean
# [13] = CellTiter-Glo luminescence survival assay, SW480 colon tumor line, concentration-response curve, half-maximal inhibitory concentration (AID 1117338); assay type: functional
# [14] = RKO cell viability reduction, dose response, CellTiter-Glo luminescence (AID 1117322); assay type: functional
# [15] = cytotoxicity toward HCT116 cells – cell-based, CellTiter-Glo luminescence, IC50, dose response (AID 1117332); assay type: functional; conditions: HCT-116
# [16] = SNU-C1 cell viability reduction, dose response, CellTiter-Glo luminescence (AID 1117323); assay type: functional, cell-based
# [17] = cytotoxicity toward Colo320 cells – cell-based, CellTiter-Glo luminescence, IC50, dose response (AID 1117334); assay type: functional; conditions: COLO 320
# [18] = cytotoxicity toward HT-29 cells – cell-based, CellTiter-Glo luminescence, IC50, dose response (AID 1117330); assay type: functional
# [19] = Reduced DLD-1 viability, concentration-response, CellTiter-Glo luminescence (AID 1117352); assay type: functional
# [20] = rise of 2N DNA cells, HeLa – IC50, dose response (AID 1117349); assay type: functional, cell-based
# [21] = rise of 4N DNA cells, HeLa – IC50, dose response (AID 1117351); assay type: functional, cell-based
# [22] = HCT116 cell viability decrease, GSK3B pretreatment – CellTiter-Glo, IC50, dose response (AID 1117339); assay type: functional; conditions: HCT-116
# Chain of Estrogen receptor beta (Q92731 whole entry): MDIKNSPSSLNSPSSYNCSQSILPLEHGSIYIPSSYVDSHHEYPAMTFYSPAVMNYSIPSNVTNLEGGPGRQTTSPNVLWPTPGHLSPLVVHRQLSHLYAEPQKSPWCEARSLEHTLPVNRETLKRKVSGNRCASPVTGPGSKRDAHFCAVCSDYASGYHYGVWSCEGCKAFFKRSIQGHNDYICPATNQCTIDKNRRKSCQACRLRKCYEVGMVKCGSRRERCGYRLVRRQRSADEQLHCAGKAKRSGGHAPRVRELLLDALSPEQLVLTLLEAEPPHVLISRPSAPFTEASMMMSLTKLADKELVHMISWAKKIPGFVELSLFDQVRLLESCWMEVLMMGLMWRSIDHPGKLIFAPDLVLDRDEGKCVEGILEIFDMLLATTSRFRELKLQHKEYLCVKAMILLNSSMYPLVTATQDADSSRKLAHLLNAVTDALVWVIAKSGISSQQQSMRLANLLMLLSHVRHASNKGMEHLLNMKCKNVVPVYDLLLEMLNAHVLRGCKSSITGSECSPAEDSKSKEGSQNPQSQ
smiles,measurement,setting,value
CN1CCN(c2ccc(N)cc2)CC1,IC50,Estrogen receptor beta,7130 nM (not active)
same,IC50,[1],2830 nM (active)
same,IC50,Nonstructural protein 1,53700 nM (active)
same,AC50,[2],3830 nM (active)
same,AC50,[3],21900 nM (active)
same,IC50,[4],32300 nM (active)
same,IC50,[5],18400 nM (active)
O=S(=O)(Nc1cc(C(F)(F)F)ccc1N1CCCCC1)c1cc(Cl)cc(Cl)c1,AC50,[6],45800 nM (active)
same,AC50,[7],41000 nM (active)
CC(=O)Nc1ccc(SCC(=O)c2cc(C)n(-c3cccc(F)c3)c2C)cc1,EC50,[8],1600 nM (active)
Sc1nc2cc(Cl)ccc2n1CCOc1ccccc1,AC50,[9],> 52000 nM (inactive)
same,AC50,cells,> 52000 nM (inactive)
Cc1cc(C(C#N)c2ccc(Cl)cc2)c(Cl)cc1NC(=O)c1cc(I)cc(I)c1O (stereo not drawn) [CLOSANTEL],EC50,[10],114 nM (active)
same,EC50,Streptococcus,92 nM (active)
same,IC50,Hexokinase,25000 nM (inactive)
same,IC50,[11],> 66600 nM (inactive)
same,IC50,[12],6590 nM (active)
same,IC50,[13],46 nM (active)
same,IC50,[14],197 nM (active)
same,IC50,[15],97.8 nM (active)
same,IC50,[16],43.8 nM (active)
same,IC50,[17],116 nM (active)
same,IC50,[18],126 nM (active)
same,IC50,[19],69 nM (active)
CC(=O)O[C@@]12CO[C@@H]1C[C@H](O)[C@@]1(C)C(=O)[C@H](O)C3=C(C)[C@@H](OC(=O)[C@H](O)[C@@H](NC(=O)OC(C)(C)C)c4ccccc4)C[C@@](O)([C@@H](OC(=O)c4ccccc4)[C@H]21)C3(C)C [DOCETAXEL],IC50,[20],3.1 nM (active)
same,IC50,[13],1 nM (active)
same,IC50,[14],1 nM (active)
same,IC50,[15],1 nM (active)
same,IC50,[16],> 20000 nM (inactive)
same,IC50,[17],1 nM (active)
same,IC50,[21],3.35 nM (active)
same,IC50,[18],1 nM (active)
same,IC50,[22],1 nM (active)
